Experimental data from patent US11931374B2, “Adenosine receptor modulators for the treatment of circadian rhythm disorders” (OXFORD UNIVERSITY INNOVATION LIMITED, priority 2016, dated 2024).
Entries after “also recorded” stand apart in the source; their conditions may differ.

Key:
CRE::Luc reporter = test: CRE-Luc luciferase assay in U2OS cells; format: cell-based
Protocol: At 60-80% confluence and >90% viability, the U2OS cells in the T-75 flask were washed twice with 6 ml phosphate-buffered saline (PBS) and subsequently treated with 4 ml of TrypLE™ Express trypsin replacement solution for 10 minutes. A Greiner Bio-One 96 Well Plate (white, TC treated), was then seeded at 8000 cells per well. Following 24 hours, the cells were transfected at 50-70% confluency with CRE-luc Vector generated in-house with Viafect transfection reagent at 1:4 ratio (100 ng DNA/well) following manufacturers recommendations.
24 hours after transfection, the medium in the 96 well plate was changed to a serum-free medium with 1 mM luciferin. The cells were then incubated in serum starvation conditions for 6-8 hours, this was optimised to yield the greatest signal strength and lowest noise when assayed with forskolin control. Following the incubation period, the CRE-Luc U2OS cells were treated with the appropriate drug and their luminescence values were measured after 6 hours in the BMG FLUOstar OPTIMA Microplate Reader. […] Unless stated otherwise, forskolin was used as a positive control, and 1% DMSO was used as a negative control.

Per1 = Per1 mRNA levels in U2OS cells by qPCR; format: cell-based
Protocol: Total RNA was extracted using the microRNeasy column method (Qiagen, Hilden, Germany). Quality and quantity of RNA were measured using an Agilent Bioanalyzer and a Nanodrop1000 (Thermo Fisher Scientific, Waltham, MA USA), respectively.
RNA samples were prepared as described for microarray hybridisation. cDNA was synthesized with a qScript cDNA synthesis kit (Quanta Biosciences, Gaithersburg, MD), and quantitative PCR (qPCR) was conducted with Sybr green I and an SDS7700 thermal cycler (Applied Biosystems, Foster City, CA). Relative quantification of transcript levels was done as described previously (Peirson et al., Nucleic Acids Res. 2003 Jul. 15; 31(14):e73.). The geometric mean of a minimum of three housekeeping genes was used for normalization (Gapdh, ActB, GusB and Rps9 for example).
Cells from the U2OS (HTB-96) line were obtained, tested and identified. The cells were cultured in T-75 flasks, in Dulbecco's modified Eagle medium (DMEM) supplemented with 10% foetal bovine serum (FBS) and 1% penicillin-streptomycin (P/S) at 37° C. in a humidified atmosphere at 5% CO2. The cells were subcultured every 2 to 4 days in a 1:2 to 1:6 ratio, in accordance with the ATCC recommendations. The cells were counted using a haemocytometer, and their viability in a culture was maintained at above 95%, measured with a Presto Blue exclusion assay according to the manufacturer's specifications. Cells were transfected with siRNAs (typically at 50 nM concentrations, sequences as previously listed), the CRE::Luc (pGL4.29[luc2P/CRE/Hygro] Vector, encoding Luc2P […] under the control of a strong cAMP response element (CRE) promoter containing 3 CRE elements within its sequence; Promega) reporter vector or cAMP-GLOSensor plasmid (Promega) as per manufacturer's instructions using either Lipofectamine RNAimax (Invitrogen) or Lipofectamine3000 (Invitrogen).

[1] = test system: STAR-PROM plasmid library; test: STAR-PROM transcription factor screening in U2OS cells; format: cell-based
Protocol: This was conducted as previously reported in Gerber et al., Cell. […] Briefly, U2OS cells were cultured in 6-well plates and transfected with 1 ug of the STAR-PROM plasmid library (library structure as in above reference). RNA was extracted at set time points and sequenced for the barcoded luciferase constructs and analysed with Galaxy (https://use.galaxy.org).

[2] = test system: Per2::Luc SCN slice cultures; test: Per2::Luc SCN slice culture; format: cell-based, mice; details: isolated Per2::Luc SCN slice cultures
From the text: SCN Tissue Collection: Animals were housed under a 12:12 LD cycle for 2 weeks with food and water ad libitum. Animals then received either a drug injection with a alteration in the light dark cycle as described in the experiment and at set points following drug administration were sacrificed by cervical dislocation. Sham-treated mice not given a light pulse were dissected at each time point. Brains were removed and placed into a brain matrix (Kent Scientific, Torrington CT, USA). Per2::Luc transgenic animals (as reported in Yoo et al, Proc Natl Acad Sci USA. 2004 Apr. 13; 101(15):5339-46) were obtained from Prof Joseph Takahashi, Northwestern University.
For SCN slice culture: The brain was gently cut into a cube preserving the integrity of the SCN and cut into […] slices in ice-cold oxygenated Hanks Balanced Salt Solution containing 100 nM MK801 (Sigma-Aldrich). The SCN was microdissected and transferred to membrane filter (Millicell Cell Culture Insert, 30 mm, hydrophilic PTFE, 0.4 μm, Millipore) and cultured in 300 uL DMEM prepared as detailed in the Per2::Luc Assay.

C57Bl/6 mice = test: Re-entrainment in a jet-lag protocol; format: in vivo
Protocol: Animals were housed under a reversed 12:12 LD cycle (400 lux from white LED lamps) with food and water ad libitum. For phase-shifting studies, C57Bl/6 mice were maintained on running wheels in light tight chambers on a 12:12 LD cycle (400 lux from white LED lamps) and injected with drug at the indicated time points. The drugs were formulated in a vehicle consisting of 5% Koliphor-HS15 (Sigma-Aldrich, UK) 5% Cyclodextran (Sigma-Aldrich, UK) in 0.9% saline. This vehicle was warmed to 37° C. and the indicated drugs kept at a 100× stock in DMSO and mixed at the appropriate concentration to be administered at approximately 300 ul intraperitoneal injection (n=6 to 10). Where the time point of injection was in the dark, the procedure was conducted under dim red light. Where measuring phase-shifting, the mice were then placed in DD and allowed to free run for 14 days in DD, running wheel activity data was collected and analysed on Clocklab (Actimetrics, Wilmette, IL). […]
Re-entrainment: C57B/6 male mice (80 days or older) were maintained on running wheels in light tight chambers on a 12:12 LD cycle (100 lux from white LED lamps) and injected with drugs as above at ZT6. […] Onset of activity on each day was used to measure phase relative to the LD cycle, data analysed on Clocklab.

SCN electrical activity = test: In vivo recording from SCN electrode implanted animals; details: intraperitoneal injection, 5 mg/kg

Structure (SMILES): Nc1nc(-c2ccccc2)c2c(n1)-c1cc(OCCN3CCOCC3)ccc1C2=O [JNJ40255293, 2-amino-8-[2-(4-morpholinyl)ethoxy]-4-phenyl-5H-indeno[1,2-d]pyrimidin-5-one]
- CREB-driven transcription (CRE::Luc reporter) (CRE::Luc reporter): does not increase signals from the CRE::Luc reporter
- Per1 transcription (Per1; 4 h post-drug treatment): significantly increased
- Per1 mRNA (Per1; U2OS cell cultures, 10 uM): Robust increases
- Per1 mRNA levels (Per1; U2OS cells, 30 uM): elevated
- Per1 mRNA levels / expression (Per1; U2OS cells, qPCR, concentration not given): induce the expression of Per1 and Per2
- clones with significantly increased reporter signal ([1]; BC-STARPROM, 30 uM): 8 clones
- response of clone3 reporter ([1]; isolated clone3): responded
- period length [2]: increased period length
- re-entrainment (advance of activity onset) (C57Bl/6 mice; 5 mg/kg single intraperitoneal injection at ZT6, LD cycle advanced 6 h): shifted rapidly; also recorded: advanced entrainment more potently than Tasimelteon, KW6002 (specific A2A antagonist) or KW3902 (specific A1 antagonist)
- re-entrainment, dose response (C57Bl/6 mice; jet-lag protocol, LD cycle advanced 6 h): dose responsively enhanced re-entrainment
- phase of SCN electrical activity (SCN electrical activity): marked phase shift
